Source: publication PMC9271048, “Probing strigolactone perception mechanisms with rationally designed small-molecule agonists stimulating germination of root parasitic weeds” (Nature Communications, 2022)

Experiments:
ShHTL7 = ShHTL7 (Striga hermonthica, UniProt A0A0M3PNA2); set-up: method as in PMID 30021834; details: microscale thermophoresis measurements; cited from earlier work
AtD14-AtMAX2 interaction = biological target: T1, AtD14-AtMAX2 interaction (Arabidopsis thaliana, UniProt Q9SQR3); assay: Yeast two-hybrid assay AtD14-AtMAX2; assay type: cell-based; details: up to 200 μM
T1 construct: the CDS of ShHTL7 and AtD14 were cloned into yeast expression vector pBrigde; expressed in transfected cells; host or cells: yeast AH109
Description: To construct plasmids for yeast two-hybrid assays, the CDS of ShHTL7 and AtD14 were cloned into yeast expression vector pBrigde to generate BD-ShHTL7 and BD-AtD14, and the CDS of ShMAX2, AtMAX2, SMAX1 were cloned into pGADT7 to make Gal4 DNA activation domain (AD) constructs, respectively. Primers used for yeast expression vector construction are listed in Supplementary Table 6. Yeast two-hybrid assays were performed using the Yeastmaker Yeast Transformation System 2 (Clontech). In brief, Yeast AH109 cells were co-transformed with specific bait and prey constructs and coated on selective growth medium SD/-Leu-Trp for 3 days at 30 °C, pick the positive constructs into liquid selective growth medium SD/-Leu-Trp shaking for 36 h at 30 °C. Washed yeast cells three times and diluted, made sure OD600 reached 2.5, then serial 10-fold dilutions of yeast cultures were spotted onto selective growth mediums that were supplemented with different concentrations of rac-GR24 and tested molecules, respectively. All yeast transformants were grown on a selective growth medium at 30 °C for 3 days.

T1 sequence (Q9SQR3 whole entry): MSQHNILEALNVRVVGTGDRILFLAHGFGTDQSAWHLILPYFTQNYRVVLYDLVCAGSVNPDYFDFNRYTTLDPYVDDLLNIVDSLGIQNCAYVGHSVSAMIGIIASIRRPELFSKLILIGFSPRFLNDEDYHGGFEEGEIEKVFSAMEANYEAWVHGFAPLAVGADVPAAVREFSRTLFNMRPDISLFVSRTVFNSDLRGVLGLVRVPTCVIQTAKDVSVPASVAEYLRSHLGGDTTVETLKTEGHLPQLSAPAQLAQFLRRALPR
Chain of ShHTL7 (A0A0M3PNA2 entry or part of it): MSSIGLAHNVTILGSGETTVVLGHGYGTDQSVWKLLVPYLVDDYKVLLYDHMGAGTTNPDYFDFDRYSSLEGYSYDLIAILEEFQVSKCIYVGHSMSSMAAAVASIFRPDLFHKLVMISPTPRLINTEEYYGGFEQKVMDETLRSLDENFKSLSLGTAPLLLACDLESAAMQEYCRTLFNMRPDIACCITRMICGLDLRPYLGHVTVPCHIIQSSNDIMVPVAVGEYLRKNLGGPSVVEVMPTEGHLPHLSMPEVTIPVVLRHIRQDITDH

| SMILES | Kd (ShHTL7) [nM] | induction of AtD14-AtMAX2 interaction (Y2H) (AtD14-AtMAX2 interaction) |
| --- | --- | --- |
| CC1=C[C@H](O/C=C2/C(=O)O[C@@H]3c4ccccc4C[C@H]23)OC1=O (racemic) [rac-GR24, reference compound] | 920 ± 10 | – |
| CC1=CC(OC(=O)N2CCN(C(=O)COc3ccc(Br)cc3C)CC2)OC1=O (centres unmarked) [4a] | – | did not promote the interaction |
